# Reference: patent US20230085307A1, “PYRIDAZINONE COMPOUND AND HERBICIDE” (NISSAN CHEMICAL CORPORATION, priority 2019, published 2023)
# Tests used:
# green foxtail [1] = test: Test Example 4: herbicidal effect by soil treatment (Table 19, symbol G); assay type: in vivo, green foxtail (Setaria viridis); details: amount of applied herbicide 320 g/ha
# In short: (§1)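 Step 1: sow seeds in sterilized diluvial soil, cover ~1.5 cm. Step 2: spray diluted emulsion onto soil surface at predetermined rate. Step 3: greenhouse, 25–30° C, three weeks. Step 4: grade effect on each plant by earlier criteria.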
# blackgrass [2] = test: Test Example 4: herbicidal effect by soil treatment (Table 19, symbol J); assay type: in vivo, blackgrass (Alopecurus myosuroides); details: amount of applied herbicide 320 g/ha
# In short: as §1
# redroot pigweed [3] = test: Test Example 5: herbicidal effect by foliage application, plastic box (Table 20, symbol N); assay type: in vivo, redroot pigweed (Amaranthus retroflexus); details: foliage application, 320 g/ha
# In short: (§2)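 Foliar spray test: emulsion formulation diluted in water to a set application rate, sprayed onto 14-day-old plants raised in diluvial soil at 25° C to 30° C under glass. Both herbicidal effect and crop effect rated visually three weeks later.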
# velvetleaf [4] = test: Test Example 4: herbicidal effect by soil treatment (Table 19, symbol M); assay type: in vivo, velvetleaf (Abutilon theophrasti); details: amount of applied herbicide 320 g/ha
# In short: as §1
# redroot pigweed [5] = test: Test Example 4: herbicidal effect by soil treatment (Table 19, symbol N); assay type: in vivo, redroot pigweed (Amaranthus retroflexus); details: amount of applied herbicide 320 g/ha
# In short: as §1
# windgrass [6] = test: Test Example 5: herbicidal effect by foliage application, plastic box (Table 20, symbol L); assay type: in vivo, windgrass (Apera spica-venti); details: foliage application, 320 g/ha
# In short: as §2
# velvetleaf [7] = test: Test Example 5: herbicidal effect by foliage application, plastic box (Table 20, symbol M); assay type: in vivo, velvetleaf (Abutilon theophrasti); details: foliage application, 320 g/ha
# In short: as §2
# lambsquarters [8] = test: Test Example 4: herbicidal effect by soil treatment (Table 19, symbol O); assay type: in vivo, lambsquarters (Chenopodium album); details: amount of applied herbicide 320 g/ha
# In short: as §1
# southern crabgrass [9] = test: Test Example 4: herbicidal effect by soil treatment (Table 19, symbol F); assay type: in vivo, southern crabgrass (Digitaria ciliaris); details: amount of applied herbicide 320 g/ha
# In short: as §1
# persian speedwell = test: Test Example 5: herbicidal effect by foliage application, plastic box (Table 20, symbol R); assay type: in vivo, Persian speedwell (Veronica persica); details: foliage application, 320 g/ha
# In short: as §2
# Chinese sprangletop = test: Test Example 3: herbicidal effect by foliage application, Wagner pot (Table 18, symbol D); assay type: in vivo, chinese sprangletop (Leptochloa chinensis); details: amount of applied herbicide 320 g/ha
# In short: (§3)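 Plants were sown in alluvial soil held under 0.1–0.5 cm standing water and grown 14 days in a greenhouse at 25–30 °C. An emulsifiable formulation, water-diluted to the set dose, was then sprayed onto the foliage, and effects were scored three weeks later using previously defined criteria.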
# lambsquarters [10] = test: Test Example 5: herbicidal effect by foliage application, plastic box (Table 20, symbol O); assay type: in vivo, lambsquarters (Chenopodium album); details: foliage application, 320 g/ha
# In short: as §2
# barnyard grass [11] = test: Test Example 5: herbicidal effect by foliage application, plastic box (Table 20, symbol H); assay type: in vivo, barnyard grass (Echinochloa crus-galli); details: foliage application, 320 g/ha
# In short: as §2
# barnyard grass [12] = test: Test Example 4: herbicidal effect by soil treatment (Table 19, symbol H); assay type: in vivo, barnyard grass (Echinochloa crus-galli); details: amount of applied herbicide 320 g/ha
# In short: as §1
# green foxtail [13] = test: Test Example 5: herbicidal effect by foliage application, plastic box (Table 20, symbol G); assay type: in vivo, green foxtail (Setaria viridis); details: foliage application, 320 g/ha
# In short: as §2
# chickweed = test: Test Example 5: herbicidal effect by foliage application, plastic box (Table 20, symbol P); assay type: in vivo, common chickweed (Stellaria media); details: foliage application, 320 g/ha
# In short: as §2
# rice flat sedge = test: Test Example 3: herbicidal effect by foliage application, Wagner pot (Table 18, symbol E); assay type: in vivo, rice flat sedge (Cyperus iria); details: amount of applied herbicide 320 g/ha
# In short: as §3
# windgrass [14] = test: Test Example 4: herbicidal effect by soil treatment (Table 19, symbol L); assay type: in vivo, windgrass (Apera spica-venti); details: amount of applied herbicide 320 g/ha
# In short: as §1
# southern crabgrass [15] = test: Test Example 5: herbicidal effect by foliage application, plastic box (Table 20, symbol F); assay type: in vivo, southern crabgrass (Digitaria ciliaris); details: foliage application, 320 g/ha
# In short: as §2
# Italian ryegrass [16] = test: Test Example 4: herbicidal effect by soil treatment (Table 19, symbol K); assay type: in vivo, Italian ryegrass (Lolium multiflorum); details: amount of applied herbicide 320 g/ha
# In short: as §1
# Italian ryegrass [17] = test: Test Example 5: herbicidal effect by foliage application, plastic box (Table 20, symbol K); assay type: in vivo, Italian ryegrass (Lolium multiflorum); details: foliage application, 320 g/ha
# In short: as §2
# barnyard grass [18] = test: Test Example 3: herbicidal effect by foliage application, Wagner pot (Table 18, symbol H); assay type: in vivo, barnyard grass (Echinochloa crus-galli); details: amount of applied herbicide 320 g/ha
# In short: as §3
# wild oat [19] = test: Test Example 5: herbicidal effect by foliage application, plastic box (Table 20, symbol I); assay type: in vivo, wild oat (Avena fatua); details: foliage application, 320 g/ha
# In short: as §2
# wild oat [20] = test: Test Example 4: herbicidal effect by soil treatment (Table 19, symbol I); assay type: in vivo, wild oat (Avena fatua); details: amount of applied herbicide 320 g/ha
# In short: as §1
# false cleavers = test: Test Example 4: herbicidal effect by soil treatment (Table 19, symbol Q); assay type: in vivo, false cleavers (Galium spurium); details: amount of applied herbicide 320 g/ha
# Description: [Test Example 4] Herbicidal Effect Test by Soil Treatment
# Sterilized diluvial soil was placed in a plastic box having a length of 21 cm, a width of 13 cm, and a depth of 7 cm. The seeds of each of southern crabgrass, green foxtail, barnyard grass, wild oat, blackgrass, Italian ryegrass, windgrass, velvetleaf, redroot pigweed, lambsquarters, chickweed, false cleavers, persian speedwell, corn, soybean, rice, wheat, beet, and rapeseed were sowed in a spot-like manner and covered with the soil having a thickness of about 1.5 cm. Subsequently, the emulsion agent of the compound of the present invention prepared according to Formulation Example 2 was diluted with water so as to achieve a predetermined herbicide amount, and the diluted emulsion agent was uniformly applied to the surface of the soil with a small-sized spray. The plastic box was placed in a greenhouse at 25° C. to 30° C. for growth of the plants. Three weeks after the herbicide application, the effect of the herbicide on each plant was evaluated according to the criteria of Test Example 1.
# blackgrass [21] = test: Test Example 5: herbicidal effect by foliage application, plastic box (Table 20, symbol J); assay type: in vivo, blackgrass (Alopecurus myosuroides); details: foliage application, 320 g/ha
# In short: as §2
# [22] = evaluated three weeks after application
smiles,measurement,setting,value
COc1ccccc1-c1sc2ccc(C(F)(F)F)cc2c1-c1c(O)c(C)nn(C)c1=O [2-162],"G: green foxtail, herbicidal effect rating",green foxtail [1],3 (Herbicidal rate of 40% or more and less than 70%)
same,"J: blackgrass, herbicidal effect rating",blackgrass [2],0 (Herbicidal rate of 5% or less (almost no effect))
same,herbicidal effect on N: redroot pigweed (criteria 0-5),redroot pigweed [3]; [22],3 (Herbicidal rate of 40% or more and less than 70%)
same,"M: velvetleaf, herbicidal effect rating",velvetleaf [4],0 (Herbicidal rate of 5% or less (almost no effect))
same,"N: redroot pigweed, herbicidal effect rating",redroot pigweed [5],2 (Herbicidal rate of 20% or more and less than 40%)
same,herbicidal effect on L: windgrass (criteria 0-5),windgrass [6]; [22],0 (Herbicidal rate of 5% or less (almost no effect))
same,herbicidal effect on M: velvetleaf (criteria 0-5),velvetleaf [7]; [22],2 (Herbicidal rate of 20% or more and less than 40%)
same,"O: lambsquarters, herbicidal effect rating",lambsquarters [8],1 (Herbicidal rate of 5% or more and less than 20%)
same,"F: southern crabgrass, herbicidal effect rating",southern crabgrass [9],0 (Herbicidal rate of 5% or less (almost no effect))
same,herbicidal effect on R: persian speedwell (criteria 0-5),persian speedwell; [22],2 (Herbicidal rate of 20% or more and less than 40%)
same,herbicidal effect on D: Chinese sprangletop,Chinese sprangletop,0 (Herbicidal rate of 5% or less (almost no effect))
same,herbicidal effect on O: lambsquarters (criteria 0-5),lambsquarters [10]; [22],0 (Herbicidal rate of 5% or less (almost no effect))
same,herbicidal effect on H: barnyard grass (criteria 0-5),barnyard grass [11]; [22],0 (Herbicidal rate of 5% or less (almost no effect))
same,"H: barnyard grass, herbicidal effect rating",barnyard grass [12],0 (Herbicidal rate of 5% or less (almost no effect))
same,herbicidal effect on G: green foxtail (criteria 0-5),green foxtail [13]; [22],0 (Herbicidal rate of 5% or less (almost no effect))
same,herbicidal effect on P: chickweed (criteria 0-5),chickweed; [22],5 (Herbicidal rate of 90% or more (almost completely withered))
same,herbicidal effect on E: rice flat sedge,rice flat sedge,3 (Herbicidal rate of 40% or more and less than 70%)
same,"L: windgrass, herbicidal effect rating",windgrass [14],0 (Herbicidal rate of 5% or less (almost no effect))
same,herbicidal effect on F: southern crabgrass (criteria 0-5),southern crabgrass [15]; [22],0 (Herbicidal rate of 5% or less (almost no effect))
same,"K: Italian ryegrass, herbicidal effect rating",Italian ryegrass [16],0 (Herbicidal rate of 5% or less (almost no effect))
same,herbicidal effect on K: Italian ryegrass (criteria 0-5),Italian ryegrass [17]; [22],0 (Herbicidal rate of 5% or less (almost no effect))
same,herbicidal effect on H: barnyard grass,barnyard grass [18],3 (Herbicidal rate of 40% or more and less than 70%)
same,herbicidal effect on I: wild oat (criteria 0-5),wild oat [19]; [22],0 (Herbicidal rate of 5% or less (almost no effect))
same,"I: wild oat, herbicidal effect rating",wild oat [20],0 (Herbicidal rate of 5% or less (almost no effect))
same,"Q: false cleavers, herbicidal effect rating",false cleavers,0 (Herbicidal rate of 5% or less (almost no effect))
same,herbicidal effect on J: blackgrass (criteria 0-5),blackgrass [21]; [22],0 (Herbicidal rate of 5% or less (almost no effect))
Cc1nn(C)c(=O)c(-c2c(-c3ccc(F)cc3)sc3cc(Cl)ccc23)c1O [3-031],"G: green foxtail, herbicidal effect grade",green foxtail [1],4 (Herbicidal rate of 70% or more and less than 90%)
same,"J: blackgrass, herbicidal effect grade",blackgrass [2],0 (Herbicidal rate of 5% or less (almost no effect))
same,"N: redroot pigweed, herbicidal effect grade",redroot pigweed [3]; three weeks after application,5 (Herbicidal rate of 90% or more (almost completely withered))
same,"M: velvetleaf, herbicidal effect grade",velvetleaf [4],2 (Herbicidal rate of 20% or more and less than 40%)
same,"N: redroot pigweed, herbicidal effect grade",redroot pigweed [5],3 (Herbicidal rate of 40% or more and less than 70%)
same,"L: windgrass, herbicidal effect grade",windgrass [6]; three weeks after application,5 (Herbicidal rate of 90% or more (almost completely withered))
same,"M: velvetleaf, herbicidal effect grade",velvetleaf [7]; three weeks after application,5 (Herbicidal rate of 90% or more (almost completely withered))
same,"O: lambsquarters, herbicidal effect grade",lambsquarters [8],4 (Herbicidal rate of 70% or more and less than 90%)
same,"F: southern crabgrass, herbicidal effect grade",southern crabgrass [9],3 (Herbicidal rate of 40% or more and less than 70%)
same,"R: persian speedwell, herbicidal effect grade",persian speedwell; three weeks after application,5 (Herbicidal rate of 90% or more (almost completely withered))
same,herbicidal effect on D: Chinese sprangletop,Chinese sprangletop,2 (Herbicidal rate of 20% or more and less than 40%)
same,"O: lambsquarters, herbicidal effect grade",lambsquarters [10]; three weeks after application,4 (Herbicidal rate of 70% or more and less than 90%)
same,"H: barnyard grass, herbicidal effect grade",barnyard grass [11]; three weeks after application,4 (Herbicidal rate of 70% or more and less than 90%)
same,"H: barnyard grass, herbicidal effect grade",barnyard grass [12],3 (Herbicidal rate of 40% or more and less than 70%)
same,"G: green foxtail, herbicidal effect grade",green foxtail [13]; three weeks after application,5 (Herbicidal rate of 90% or more (almost completely withered))
same,"P: chickweed, herbicidal effect grade",chickweed; three weeks after application,5 (Herbicidal rate of 90% or more (almost completely withered))
same,herbicidal effect on E: rice flat sedge,rice flat sedge,3 (Herbicidal rate of 40% or more and less than 70%)
same,"F: southern crabgrass, herbicidal effect grade",southern crabgrass [15]; three weeks after application,4 (Herbicidal rate of 70% or more and less than 90%)
same,"K: Italian ryegrass, herbicidal effect grade",Italian ryegrass [16],3 (Herbicidal rate of 40% or more and less than 70%)
same,"K: Italian ryegrass, herbicidal effect grade",Italian ryegrass [17]; three weeks after application,5 (Herbicidal rate of 90% or more (almost completely withered))
same,herbicidal effect on H: barnyard grass,barnyard grass [18],5 (Herbicidal rate of 90% or more (almost completely withered))
same,"I: wild oat, herbicidal effect grade",wild oat [19]; three weeks after application,5 (Herbicidal rate of 90% or more (almost completely withered))
same,"I: wild oat, herbicidal effect grade",wild oat [20],1 (Herbicidal rate of 5% or more and less than 20%)
same,"Q: false cleavers, herbicidal effect grade",false cleavers,4 (Herbicidal rate of 70% or more and less than 90%)
same,"J: blackgrass, herbicidal effect grade",blackgrass [21]; three weeks after application,4 (Herbicidal rate of 70% or more and less than 90%)
